{"source": "patent US6440446B1", "about": "“Agent for anti-osteoporosis” (Kabushiki Kaisha Hayashibara Seibutsu Kagaku Kenkyujo, priority 1998, dated 2002)", "key": {"osteoclasts [1]": {"test_system": "osteoclasts", "experiment": "Osteoclast count in cultured bone marrow cells from tibias of intravenously treated mice (tartaric-acid-resistant acid phosphatase staining)", "format": "cell-based, ddY mice", "conditions": "bone marrow cells from mice given 10% trehalose solution, about 5 ml/kg body weight/shot; control 1 at least 3-times", "experimental": "Similarly as above, the tibias were extracted from some mice, excluding the aforesaid mice which had been extracted their tibias, in the group with 10% trehalose solution at a dose of about 5 ml/kg body weight/shot, and in the groups 1 and 3. From each tibia, bone marrow cells were collected in the usual manner and suspended in α-MEM medium, supplemented with 10 v/v % fetal calf serum, to give a cell density of 1.5×10^6 cells/ml. The resulting cell suspensions were respectively placed in 24-well plates in a volume of 0.5 ml/well. To each well was added 0.25 ml/well of a cell suspension with a cell density of 4×10^4 cells/ml of osteoblast-like cells suspended in a fresh preparation of the same medium as above. A solution of 4×10^9M 1α, 25-dihydroxy vitamin D3, dissolved in a fresh preparation of the same medium as above, was added to each well in a volume of 0.25 ml/well. The resulting cell suspension mixtures were incubated in a 5 v/v % CO2 incubator at 37° C. for six days while replacing the media with a fresh preparation of α-MEM medium containing 1×10^9M 1α, 25-dihydroxy vitamin D3 and 10 v/v % fetal calf serum.\nAfter completion of the culture, the supernatants were removed, and the cells in each well were fixed with formalin, and treated in the usual manner with “NAPHTHOL AS-MS PHOSPHATE” and “RED VIOLET LB”, which are commercialized by Sigma Chemical Company, ST. […]"}, "osteoclasts [2]": {"test_system": "osteoclasts", "experiment": "Osteoclast count in cultured bone marrow cells from tibias of orally treated mice (tartaric-acid-resistant acid phosphatase staining)", "format": "cell-based, ddY mice", "conditions": "bone marrow cells from mice given oral 0.1 g/kg body weight/shot; control 1 at least 3-times", "description": "Similarly as above, the tibias were extracted from some mice, excluding the aforesaid mice which had been extracted their tibias, in the group with trehalose at a dose of 0.1 g/kg body weight/shot, and in the groups 1 and 3. From each tibia, bone marrow cells were collected in the usual manner and suspended in α-MEM medium, supplemented with 10 v/v % fetal calf serum, to give a cell density of 1.5×10^6 cells/ml. The resulting cell suspensions were respectively placed in 24-well plates in a volume of 0.5 ml/well. To each well was added 0.25 ml/well of a cell suspension with a cell density of 4×10^4 cells/ml of osteoblast-like cells suspended in a fresh preparation of the same medium as above. A solution of 4×10^9M 1α, 25-dihydroxy vitamin D3, dissolved in a fresh preparation of the same medium as above, was added to each well in a volume. of 0.25 ml/well. The resulting cell suspension mixtures were incubated in a 5 v/v % CO2 incubator at 37° C. for six days while replacing the media with a fresh preparation of α-MEM medium containing 1×10^9M 1α, 25-dihydroxy vitamin D3 and 10 v/v % fetal calf serum.\nAfter completion of the culture, the supernatants were removed, and the cells in each well were fixed with formalin, and treated in the usual manner with “NAPHTHOL AS-MS PHOSPHATE” and “RED VIOLET LB SALT”, which are commercialized by Sigma Chemical Company, ST. […]"}, "ddY mice": {"test_system": "ddY mice", "conditions": "mouse, in vivo", "experimental": "An adequate amount of “TREHAOSE®”, a crystalline trehalose powder having at least 98% of trehalose, d.s.b., commercialized by Hayashibara Shoji, Inc., Okayama, Japan, was dissolved in physiological saline containing 5 w/w % gum arabic, and the solution was sterilized in the usual manner. The sterilized solution was injected intraperitoneally or orally administered using a gastric tube to ddY mice, 20-25 g weight, in a group of 10 heads, followed by the observation for seven days. As a result, independently of the administration routes, no mouse died even administered with the maximum dose, 15 g/kg body weight."}, "[3]": {"test_system": "ovary-extracted mice (oophorectomized osteoporosis)", "experiment": "Animal experiment: oral administration to ovary-extracted mice on low-calcium feed, dry weight of femurs and tibia microscopy", "format": "in vivo, female ddY mice", "description": "According to what is done conventionally, female ddY mice, 4-week-old, which had been grouped into 34 heads/group based on their body weight, were anesthetized with sodium pentobarbital, and extracted their ovaries. From the next day, the mice were orally administered with “TREHAOSE®”, a crystalline trehalose powder containing at least 98% trehalose, d.s.b., commercialized by Hayashibara Shoji, Inc, Okayama, Japan, which had been dissolved in distilled water, at a dose of 0.01, 0.1 or 1 g/kg body weight per shot once every day, five shots in a week. […] The feed used was a low-calcium feed for ease of making the difference of the bone content.\nIn parallel, the following control groups were provided and treated similarly as the group with trehalose: As control 1, a group in which mice were administered with the same amount of distilled water as the aqueous trehalose solution in place of the trehalose solution; as control 2, a group in which mice were administered with estradiol, as a therapeutic agent for osteoporosis, dissolved in the same amount of distilled water as the aqueous trehalose solution in place of the trehalose solution, at a dose of one mg/kg body weight/shot, two times a week; and as control 3, a group in which mice, which were received with a laparotomy pseudo-operation and not extracted their ovaries, were administered with the same amount of distilled water as the aqueous trehalose solution in place of the trehalose solution. Some of the mice administered with trehalose at a dose of 0.1 g/kg body weight/shot, and the mice in controls 1 and 3 as groups with no trehalose were extracted their tibias, followed by observing the tibias microscopically. The specimens for microscopic observation were prepared in the usual manner by immobilizing the extracted tibias with formalin solution, washed with water, delimed, split along with the long axis, and treated with protease K to remove bone marrow cells. The specimens of tibias were observed by a relatively-low vacuum electron-microscope under 24 magnifications, and photographed. The data are respectively in FIGS. 1 to 3. In these figures, white parts are the trabecula of cancellous bone. The osteoporosis occurred in the mice extracted their ovaries is called oophorectomized osteoporosis and is an excellent model for postmenopausal osteoporosis as a geriatric osteoporosis."}, "[4]": {"test_system": "ovary-extracted mice (oophorectomized osteoporosis)", "experiment": "Animal experiment: intravenous injection to ovary-extracted mice on low-calcium feed, dry weight of femurs and tibia microscopy", "format": "in vivo, female ddY mice", "conditions": "for Dry weight of extracted tibia / Dry weight of extracted tibia / Body weight: tail vein, 5 ml/kg body weight/shot, once daily, five times a week; for Bone content compared with the control groups (ovaries extracted, PBS): administered in place of trehalose, data not shown", "experimental": "An injection containing 10 w/w % trehalose, obtained by the later described Example 7, was diluted with a phosphate buffered saline, which had been filtered with a membrane filter having a pore size of 0.22 μm (hereinafter abbreviated as “PBS”) into a 0.1 w/w % or 1 w/w % trehalose solution. These solutions and the above injection were used for test samples. According to what is done conventionally, female ddY mice, 4-week-old, which had been grouped into 34 heads/group based on their body weight, were anesthetized with sodium pentobarbital, and extracted their ovaries. From the next day, the mice were injected from their tail veins with any one of the test samples at a dose of 5 ml/kg body weight/shot, once every day and five times a week. […] The feed used was a low-calcium feed for ease of making the difference of the bone content.\nIn parallel, the following control groups were provided and treated similarly as the group with trehalose: As control 1, a group in which mice were administered with the same amount of PBS as the test samples in place of them; and as control 2, a group in which mice, that were received with a laparotomy pseudo-operation and were not extracted their ovaries, were administered with the same amount of PBS as the test samples in place of them. Some of the mice administered with trehalose using one w/w t trehalose solution, and the mice in controls 1 and 2 as non-trehalose administration groups were extracted their tibias, followed by observing the tibias microscopically. The specimens for microscopic observation were prepared in the usual manner by immobilizing the extracted tibias with formalin solution, washed with water, delimed, split along with the long axis, and treated with protease K to remove bone marrow cells. The specimens of tibias were observed by a relatively-low vacuum electron-microscope under 24 magnifications, and photographed. The data are respectively in FIGS. 4 to 6. In these figures, white parts are the trabecula of cancellous bone. The osteoporosis occurred in mice extracted their ovaries is called oophorectomized osteoporosis and is an excellent model for postmenopausal osteoporosis as a geriatric osteoporosis."}, "[5]": {"conditions": "oral 0.01 g/kg body weight/shot, once daily, five shots a week, ovary-extracted mice"}, "[6]": {"conditions": "oral 0.1 g/kg body weight/shot, once daily, five shots a week, ovary-extracted mice"}, "[7]": {"conditions": "oral 1 g/kg body weight/shot, once daily, five shots a week, ovary-extracted mice"}, "[8]": {"conditions": "one mg/kg body weight/shot, two times a week (control 2), ovary-extracted mice"}}, "note": "Like-named read-outs stand apart in the source and are kept apart here.", "data": [{"molecule": "OC[C@H]1O[C@H](O[C@H]2O[C@H](CO)[C@@H](O)[C@H](O)[C@H]2O)[C@H](O)[C@@H](O)[C@@H]1O", "note": "[Trehalose, trehalose]", "values": [{"measurement": "Number of osteoclasts relative to control 2 (times higher)", "setting": "osteoclasts [1]", "result": "about 2 times"}, {"measurement": "Number of osteoclasts relative to control 2 (times higher)", "setting": "osteoclasts [2]", "result": "about 2 times"}, {"measurement": "Death at the maximum dose", "setting": "ddY mice; ip", "result": "no mouse died"}, {"measurement": "Death at the maximum dose", "setting": "ddY mice; po", "result": "no mouse died"}, {"measurement": "Dry weight of extracted tibia", "setting": "[3]; [5]", "result": "83.6 ± 7.0", "unit": "mg"}, {"measurement": "Dry weight of extracted tibia / Body weight", "setting": "[3]; [5]", "result": "2.643 ± 0.195", "unit": "mg/g"}, {"measurement": "Dry weight of extracted tibia", "setting": "[3]; [6]", "result": "85.0 ± 5.2", "unit": "mg"}, {"measurement": "Dry weight of extracted tibia / Body weight", "setting": "[3]; [6]", "result": "2.723 ± 0.163", "unit": "mg/g"}, {"measurement": "Reduction of trabecula in cancellous bone and expansion of the cavity of marrow (tibia, electron microscope x24, FIG. 1)", "setting": "[3]; oral 0.1 g/kg body weight/shot, ovary-extracted mice", "result": "clearly inhibited"}, {"measurement": "Dry weight of extracted tibia", "setting": "[3]; [7]", "result": "88.4 ± 6.4", "unit": "mg"}, {"measurement": "Dry weight of extracted tibia / Body weight", "setting": "[3]; [7]", "result": "2.762 ± 0.172", "unit": "mg/g"}, {"measurement": "Abnormality induced by the administration", "setting": "[3]; oral, observation throughout the experiment", "result": "No abnormality"}, {"measurement": "Dose at which the inhibitory effect on the lowering of the bone content was found", "setting": "[3]; oral, ovary-extracted mice", "result": "about 0.1 g/kg body weight/shot"}, {"measurement": "Dry weight of extracted tibia", "setting": "[4]; 0.1 w/w % trehalose solution", "result": "84.2 ± 6.9", "unit": "mg"}, {"measurement": "Dry weight of extracted tibia / Body weight", "setting": "[4]; 0.1 w/w % trehalose solution", "result": "2.639 ± 0.213", "unit": "mg/g"}, {"measurement": "Dry weight of extracted tibia", "setting": "[4]; 1 w/w % trehalose solution", "result": "86.9 ± 6.1", "unit": "mg"}, {"measurement": "Dry weight of extracted tibia / Body weight", "setting": "[4]; 1 w/w % trehalose solution", "result": "2.716 ± 0.191", "unit": "mg/g"}, {"measurement": "Dry weight of extracted tibia", "setting": "[4]; 10 w/w % trehalose injection", "result": "89.7 ± 5.5", "unit": "mg"}, {"measurement": "Dry weight of extracted tibia / Body weight", "setting": "[4]; 10 w/w % trehalose injection", "result": "2.777 ± 0.170", "unit": "mg/g"}, {"measurement": "Trehalose concentration at which the inhibitory effect on the lowering of bone content was found", "setting": "[4]; intravenous, about 5 ml/kg body weight/shot", "result": "~1", "unit": "w/w %"}, {"measurement": "Abnormality induced by the administration", "setting": "[4]; intravenous, observation throughout the experiment", "result": "No abnormality"}, {"measurement": "Reduction of the trabecula in cancellous bone and expansion of the cavity of marrow (tibia, electron microscope x24, FIG. 4)", "setting": "[4]; one w/w % trehalose solution, intravenous 5 ml/kg body weight/shot", "result": "clearly inhibited"}]}, {"molecule": "OC[C@H]1O[C@@](CO)(O[C@H]2O[C@H](CO)[C@@H](O)[C@H](O)[C@H]2O)[C@@H](O)[C@@H]1O", "note": "[sucrose, reference compound]", "values": [{"measurement": "Bone content compared with the control group (ovaries extracted, distilled water)", "setting": "[3]; administered in place of trehalose, data not shown", "result": "no significant difference"}]}, {"molecule": "OC[C@H]1O[C@H](O[C@H]2[C@H](O)[C@@H](O)C(O)O[C@@H]2CO)[C@H](O)[C@@H](O)[C@@H]1O", "note": "(mixture of isomers) [maltose, reference compound]", "values": [{"measurement": "Bone content compared with the control groups (ovaries extracted, PBS)", "setting": "[4]", "result": "no significant difference"}]}, {"molecule": "OC[C@@H](O)[C@@H](O)[C@H](O)[C@@H](O)CO", "note": "[sorbitol, reference compound]", "values": [{"measurement": "Bone content compared with the control groups (ovaries extracted, PBS)", "setting": "[4]", "result": "no significant difference"}]}, {"molecule": "C[C@]12CC[C@@H]3c4ccc(O)cc4CC[C@H]3[C@@H]1CC[C@@H]2O", "note": "[Estradiol, estradiol, reference compound]", "values": [{"measurement": "Dry weight of extracted tibia", "setting": "[3]; [8]", "result": "119.9 ± 7.5", "unit": "mg"}, {"measurement": "Dry weight of extracted tibia / Body weight", "setting": "[3]; [8]", "result": "3.520 ± 0.240", "unit": "mg/g"}]}, {"molecule": "OC[C@@H](O)[C@H](O)[C@@H](O)CO", "note": "[xylitol, reference compound]", "values": [{"measurement": "Bone content compared with the control groups (ovaries extracted, PBS)", "setting": "[4]", "result": "no significant difference"}]}]}
